From paper PMC12624743 (ACS Infectious Diseases, 2025)
Substitutions are numbered along the chain they refer to.

Experiments:
Assay in all cases: biochemical
[1] = molecular target: N. gonorrhoeae topoisomerase IV ParC^E91G (Neisseria gonorrhoeae, UniProt P48374, E91G)
Procedure: (§1) Some experiments replaced MgCl2 with an equivalent concentration of CaCl2 (10 mM), or 1.5 mM ATP was added to assay mixtures.
(§2) Reactions were incubated at 37 °C for 30 min with WT and mutant (GyrA^D90N, GyrA^A92T, GyrA^S91F, GyrA^D95G, or GyrA^S91F/D95G) N. gonorrhoeae gyrase, 10 min with WT N. gonorrhoeae topoisomerase IV, and 20 min with mutant (ParC^D86N, ParC^S88P, ParC^S87N, or ParC^E91G) N. gonorrhoeae topoisomerase IV. Enzyme-DNA cleavage complexes were trapped by adding 2 μL of 5% SDS followed by 2 μL of 250 mM EDTA (pH 8.0). Proteinase K was added (2 μL of a 0.8 mg/mL solution), and reaction mixtures were incubated at 45 °C for 30 min to digest the enzyme. Samples were mixed with 2 μL of loading buffer and heated at 45 °C for 2 min prior to electrophoresis in 1% agarose gels in 40 mM Tris-acetate (pH 8.3), and 2 mM EDTA containing 0.5 μg/mL ethidium bromide. DNA bands were visualized by midrange ultraviolet light and quantified using an Alpha Innotech digital imaging system (Protein Simple). Single-stranded DNA cleavage was monitored by the conversion of negatively supercoiled to nicked plasmid molecules.

[2] = test system: N. gonorrhoeae topoisomerase IV ParC^E91G; settings: ParC E91G vs WT
Procedure: as §1, §2

[3] = molecular target: N. gonorrhoeae topoisomerase IV ParC^S87N (Neisseria gonorrhoeae, UniProt P48374, S87N)
Procedure: as §1, §2

[4] = test system: N. gonorrhoeae topoisomerase IV ParC^S87N; settings: ParC S87N vs WT
Procedure: as §1, §2

[5] = molecular target: T1, N. gonorrhoeae topoisomerase IV ParC^S88P (Neisseria gonorrhoeae, UniProt P48374, S88P)
T1 sequence (P48374 1-768 S88P): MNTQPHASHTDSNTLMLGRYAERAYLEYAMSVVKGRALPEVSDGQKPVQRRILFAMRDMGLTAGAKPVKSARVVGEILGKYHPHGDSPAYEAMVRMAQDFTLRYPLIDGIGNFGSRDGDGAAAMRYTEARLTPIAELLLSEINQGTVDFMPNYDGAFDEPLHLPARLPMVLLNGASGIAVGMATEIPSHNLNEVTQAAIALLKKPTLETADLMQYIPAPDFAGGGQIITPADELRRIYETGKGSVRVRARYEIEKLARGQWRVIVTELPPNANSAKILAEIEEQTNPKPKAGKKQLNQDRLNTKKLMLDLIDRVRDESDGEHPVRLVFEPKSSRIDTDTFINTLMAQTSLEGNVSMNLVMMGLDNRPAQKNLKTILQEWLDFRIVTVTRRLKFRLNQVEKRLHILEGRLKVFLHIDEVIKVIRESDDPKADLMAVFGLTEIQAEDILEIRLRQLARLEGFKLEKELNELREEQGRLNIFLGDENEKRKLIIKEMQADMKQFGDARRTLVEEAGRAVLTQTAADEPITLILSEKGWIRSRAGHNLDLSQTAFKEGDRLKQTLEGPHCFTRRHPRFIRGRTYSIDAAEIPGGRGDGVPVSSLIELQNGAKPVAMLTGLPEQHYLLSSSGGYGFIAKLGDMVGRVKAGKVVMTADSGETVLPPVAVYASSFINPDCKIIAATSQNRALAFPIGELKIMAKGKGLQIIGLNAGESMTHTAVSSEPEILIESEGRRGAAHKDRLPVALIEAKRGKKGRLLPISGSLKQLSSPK
Procedure: as §1, §2

[6] = test system: N. gonorrhoeae topoisomerase IV ParC^S88P; settings: ParC S88P vs WT topoisomerase IV
Procedure: as §1, §2

[7] = molecular target: T2, WT N. gonorrhoeae topoisomerase IV (Neisseria gonorrhoeae, UniProt P48374)
T2 sequence (P48374 1-768): T1 sequence (P48374 1-768 S88P) with P88S
Procedure: as §1, §2

Chain of N. gonorrhoeae topoisomerase IV ParC^E91G (Neisseria gonorrhoeae, UniProt P48374, E91G) (P48374 whole entry E91G): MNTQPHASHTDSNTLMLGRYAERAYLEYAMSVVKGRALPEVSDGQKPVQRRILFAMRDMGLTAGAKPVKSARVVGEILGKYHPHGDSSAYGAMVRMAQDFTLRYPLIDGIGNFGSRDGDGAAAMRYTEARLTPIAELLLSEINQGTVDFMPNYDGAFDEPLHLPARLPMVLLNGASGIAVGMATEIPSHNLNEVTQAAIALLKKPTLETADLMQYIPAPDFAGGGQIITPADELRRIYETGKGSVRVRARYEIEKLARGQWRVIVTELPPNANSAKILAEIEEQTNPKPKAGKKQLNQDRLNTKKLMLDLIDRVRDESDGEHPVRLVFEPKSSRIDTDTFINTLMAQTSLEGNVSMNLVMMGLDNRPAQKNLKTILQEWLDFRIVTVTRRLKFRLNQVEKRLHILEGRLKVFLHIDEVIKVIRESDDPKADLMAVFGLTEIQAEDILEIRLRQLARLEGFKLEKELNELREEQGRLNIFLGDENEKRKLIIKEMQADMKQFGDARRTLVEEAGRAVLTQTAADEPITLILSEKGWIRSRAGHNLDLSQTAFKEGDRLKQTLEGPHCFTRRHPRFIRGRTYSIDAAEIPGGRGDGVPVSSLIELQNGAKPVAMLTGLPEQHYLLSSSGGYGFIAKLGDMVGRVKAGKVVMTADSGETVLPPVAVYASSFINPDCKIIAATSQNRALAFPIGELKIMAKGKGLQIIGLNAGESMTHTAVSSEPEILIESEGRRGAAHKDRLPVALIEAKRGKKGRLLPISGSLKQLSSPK
Chain of N. gonorrhoeae topoisomerase IV ParC^S87N (Neisseria gonorrhoeae, UniProt P48374, S87N) (P48374 whole entry S87N): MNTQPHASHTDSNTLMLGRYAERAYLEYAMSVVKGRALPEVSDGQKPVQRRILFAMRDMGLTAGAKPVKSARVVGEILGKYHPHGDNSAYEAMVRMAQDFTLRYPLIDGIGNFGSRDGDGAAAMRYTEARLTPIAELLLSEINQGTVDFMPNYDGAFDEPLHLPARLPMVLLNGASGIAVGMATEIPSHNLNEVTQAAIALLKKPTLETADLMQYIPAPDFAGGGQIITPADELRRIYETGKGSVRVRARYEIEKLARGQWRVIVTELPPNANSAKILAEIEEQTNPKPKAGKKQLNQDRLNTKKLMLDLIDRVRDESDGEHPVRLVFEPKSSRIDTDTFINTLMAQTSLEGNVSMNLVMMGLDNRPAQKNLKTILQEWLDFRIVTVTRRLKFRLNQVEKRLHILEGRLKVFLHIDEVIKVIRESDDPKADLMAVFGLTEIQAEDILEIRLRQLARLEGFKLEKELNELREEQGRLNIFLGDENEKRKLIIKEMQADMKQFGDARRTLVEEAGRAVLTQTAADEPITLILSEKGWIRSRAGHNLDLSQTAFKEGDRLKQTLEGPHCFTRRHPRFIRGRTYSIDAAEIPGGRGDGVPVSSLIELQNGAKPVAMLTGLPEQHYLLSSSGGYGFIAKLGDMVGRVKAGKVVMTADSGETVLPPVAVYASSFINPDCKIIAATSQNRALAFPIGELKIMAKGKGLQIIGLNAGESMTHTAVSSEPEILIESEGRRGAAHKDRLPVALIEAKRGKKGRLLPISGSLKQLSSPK

O=c1ccc2ncc(=O)n3c2n1C[C@H]3CN1CCC(NCc2cc3c(cn2)OCCC3)CC1 [gepotidacin]
EC50 [1]: 200 nM | fold decrease of Adj-Max Cleavage vs WT [2]: ~3.2 fold | EC50 [3]: 600 nM | fold decrease of Adj-Max Cleavage vs WT [4]: ~4.2 fold | EC50 [5]: 200 nM | more single-stranded DNA cleavage with mutant enzyme compared to WT [6]: ~40% | EC50 [7]: 600 ± 200 nM | effect of ATP on potency and maximal DNA cleavage ([7]; WT topoisomerase IV, 1.5 mM ATP): little effect | effect on double-stranded DNA breaks ([7]; WT topoisomerase IV, Mg2+ replaced with Ca2+): clear suppression | Adj-Max Cleavage, single-stranded DNA breaks ([7]; WT topoisomerase IV, adjusted for baseline cleavage): ~42.8% | additional enhancement of double-stranded DNA breaks above baseline ([7]; WT topoisomerase IV, up to 200 μM gepotidacin, up to 180 min): not observed
